Experimental data taken from ChEMBL document CHEMBL1201862, “PubChem BioAssay data set” (2004).
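A five-concentration, 48-hour dose response in 96-well plates underlies each endpoint, interpolated linearly between surrounding concentrations. GI50: concentration for 50% inhibition of growth.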 Calls of active or inactive are those of the source. No stated cut-off is given here; in the data, active = GI50 up to about 1.1 µM and inactive = higher.

Columns and labels:
Experiment in all cases: DTP human tumour cell line panel, 48 h
786-0 = tested on: 786-0
A498 = tested on: A498
A549 = tested on: A549
CCRF-CEM = tested on: CCRF-CEM
IGROV-1 = tested on: IGROV-1
K562 = tested on: K562
LOX IMVI = tested on: LOX IMVI
M14 = tested on: M14
MDA-MB-435 = tested on: MDA-MB-435
Malme-3M = tested on: Malme-3M
NCI-H226 = tested on: NCI-H226
NCI-H522 = tested on: NCI-H522
NCI/ADR-RES = tested on: NCI/ADR-RES
OVCAR-3 = tested on: OVCAR-3
OVCAR-8 = tested on: OVCAR-8
SNB-75 = tested on: SNB-75
U-251 = tested on: U-251
UACC-257 = tested on: UACC-257
UO-31 = tested on: UO-31
HOP-92 = tested on: HOP-92

Measured: GI50

CSc1nc(C)cc(N(C)c2ccccc2)n1
inactive: 786-0 38.5 µM | A498 50.1 µM | A549 29 µM | CCRF-CEM 38 µM | IGROV-1 36.9 µM | K562 44 µM | LOX IMVI 21.1 µM | M14 30.1 µM | MDA-MB-435 22.5 µM | Malme-3M 63.7 µM | NCI-H226 34.5 µM | NCI-H522 65.6 µM | NCI/ADR-RES 25.2 µM | OVCAR-3 27.3 µM | OVCAR-8 34.8 µM | SNB-75 27.1 µM | U-251 31.4 µM | UACC-257 31.6 µM | UO-31 5.33 µM

COc1cc(C(=O)N(C(=S)OCc2ccccn2)c2ccccc2)cc(OC)c1OC
inactive: 786-0 77.8 µM | A498 53.5 µM | CCRF-CEM 17.8 µM | IGROV-1 16.3 µM | K562 41.1 µM | LOX IMVI 35 µM | M14 > 100 µM | MDA-MB-435 > 100 µM | Malme-3M 8.22 µM | NCI-H226 26.1 µM | NCI/ADR-RES 39.4 µM | OVCAR-3 > 100 µM | OVCAR-8 62.2 µM | U-251 > 100 µM | UACC-257 > 100 µM | UO-31 25.4 µM

CO[C@H]1SC[C@H](OC(C)=O)[C@H](OC(C)=O)[C@H]1OC(C)=O
inactive: 786-0 > 100 µM | A549 > 100 µM | CCRF-CEM > 100 µM | IGROV-1 > 100 µM | K562 > 100 µM | LOX IMVI > 100 µM | M14 > 100 µM | MDA-MB-435 > 100 µM | Malme-3M > 100 µM | NCI-H226 > 100 µM | NCI-H522 > 100 µM | NCI/ADR-RES > 100 µM | OVCAR-3 > 100 µM | OVCAR-8 > 100 µM | U-251 > 100 µM | UACC-257 > 100 µM | UO-31 > 100 µM

CCN(C(=S)N[C@H](C(=O)N[C@@H](C)C(=O)OC)C(C)C)c1ccccc1
inactive: 786-0 59.7 µM | A549 > 100 µM | CCRF-CEM 27.8 µM | HOP-92 51.4 µM | IGROV-1 25.8 µM | K562 22.7 µM | LOX IMVI 52.6 µM | M14 53.2 µM | MDA-MB-435 64 µM | Malme-3M 21.8 µM | NCI-H226 > 100 µM | NCI-H522 16.6 µM | NCI/ADR-RES > 100 µM | OVCAR-3 > 100 µM | OVCAR-8 21.8 µM | U-251 > 100 µM | UACC-257 44.7 µM | UO-31 60.8 µM

COC(=O)C1=Nc2c(C)nn(-c3ccccc3)c2N=C(c2ccccc2)C1
inactive: 786-0 > 10 µM | A549 > 10 µM | HOP-92 > 10 µM | IGROV-1 > 10 µM | K562 > 10 µM | LOX IMVI > 10 µM | M14 > 10 µM | MDA-MB-435 > 10 µM | Malme-3M > 10 µM | NCI-H522 > 10 µM | NCI/ADR-RES > 10 µM | OVCAR-3 > 10 µM | OVCAR-8 > 10 µM | SNB-75 > 10 µM | U-251 > 10 µM | UACC-257 > 10 µM

Cc1cc(=O)oc2c(C)c3oc(CBr)cc3cc12
inactive: 786-0 16.3 µM | A549 17.3 µM | CCRF-CEM 14.4 µM | IGROV-1 16.8 µM | K562 19.9 µM | LOX IMVI 15.3 µM | M14 18.2 µM | MDA-MB-435 18.2 µM | Malme-3M 19.2 µM | NCI-H226 15.5 µM | NCI-H522 15.2 µM | NCI/ADR-RES 19.4 µM | OVCAR-3 35.7 µM | OVCAR-8 23.8 µM | SNB-75 22.6 µM | U-251 19.8 µM | UACC-257 22.8 µM | UO-31 15.9 µM

CC(=O)O[C@H]1C(=O)[C@@]2(C)[C@H]([C@H](OC(=O)c3ccccc3)[C@@]3(O)C[C@H](O)C(C)=C1C3(C)C)[C@]1(OC(C)=O)CO[C@@H]1C[C@@H]2O
inactive: 786-0 51.5 µM | A549 73.3 µM | CCRF-CEM 46.2 µM | HOP-92 > 100 µM | IGROV-1 19.5 µM | K562 55.8 µM | LOX IMVI 45.3 µM | M14 28.6 µM | MDA-MB-435 11.9 µM | Malme-3M > 100 µM | NCI-H226 86.5 µM | NCI-H522 17 µM | NCI/ADR-RES > 100 µM | OVCAR-3 22.2 µM | OVCAR-8 31.2 µM | SNB-75 11.2 µM | U-251 45.9 µM | UACC-257 83.6 µM | UO-31 82 µM

CC(C)[C@H]1NC(=O)[C@H]2N=C(O[C@@H]2C)[C@@H]2CCCN2C(=O)[C@H](Cc2ccccc2)NC(=O)[C@@H]2CSC(=N2)[C@@H](Cc2ccccc2)NC(=O)[C@@H]2CSC1=N2
inactive: 786-0 > 100 µM | A498 > 100 µM | A549 84.5 µM | CCRF-CEM > 100 µM | IGROV-1 41.1 µM | K562 92.9 µM | LOX IMVI 75.3 µM | M14 > 100 µM | MDA-MB-435 52.8 µM | Malme-3M > 100 µM | NCI-H226 > 100 µM | NCI-H522 58.2 µM | NCI/ADR-RES 86.5 µM | OVCAR-3 38.5 µM | OVCAR-8 > 100 µM | U-251 > 100 µM | UACC-257 > 100 µM | UO-31 59.8 µM
